Structures can show the parent of a compound that is named as a salt.
Target: T1, human PAR-2 (hPAR-2) receptor expressed in HEK-293 T cells in an endogenous manner (Homo sapiens, UniProt P55085)
T1 construct: human PAR-2 (hPAR-2) receptor expressed in HEK-293 T cells in an endogenous manner; endogenous in cells; host or cells: HEK-293 T cells
T1 sequence (P55085 26-397): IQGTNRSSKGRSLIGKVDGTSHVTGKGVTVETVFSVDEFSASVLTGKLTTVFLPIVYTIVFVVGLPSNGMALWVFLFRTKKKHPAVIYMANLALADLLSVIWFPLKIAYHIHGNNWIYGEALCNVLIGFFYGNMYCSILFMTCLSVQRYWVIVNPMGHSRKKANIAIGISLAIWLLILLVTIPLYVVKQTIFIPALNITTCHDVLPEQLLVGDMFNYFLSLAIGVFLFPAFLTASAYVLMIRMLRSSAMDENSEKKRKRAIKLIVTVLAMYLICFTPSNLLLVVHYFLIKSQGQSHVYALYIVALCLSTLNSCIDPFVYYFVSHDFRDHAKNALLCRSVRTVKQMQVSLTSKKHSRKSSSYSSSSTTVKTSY
Test: In vitro human PAR-2 functional antagonist activity using calcium assays (Fluo4AM, FLIPR Tetra)
Format: cell-based
Conditions: HEK-293 T cells stimulated by an EC80 of the 2-Furoyl-LIGRLO-NH2 peptide after 10 min incubation with compound; 20 concentrations, duplicate, two independent experiments
In short: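 Antagonist activity was taken as the decrease in the calcium response to an EC80 of 2-Furoyl-LIGRLO-NH2, measured over 5 min. The agonist was added after a 10 min compound-alone step on the same plate. The HEK-293 T cells express PAR-2 endogenously and were loaded with 1 μM Fluo4AM. Signals were referenced to buffer and EC80-alone controls.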

Compound: Cc1cc(N2CCN(C(=O)c3ccc4c(-c5ccc(C(F)(F)F)nc5)cn(CC(C)C)c4n3)C(C)(C)C2)nc(C)c1C(=O)O [Example 170, 6-(4-(1-isobutyl-3-(6-(trifluoromethyl)pyridin-3-yl)-1H-pyrrolo[2,3-b]pyridine-6-carbonyl)-3,3-dimethylpiperazin-1-yl)-2,4-dimethylnicotinic acid]
- IC50: 20 to 10000 nM

Compound: Cc1cc(N2CCN(C(=O)c3ccc4c(-c5ccc(Cl)c(F)c5)cn(CC5CCC5)c4n3)C(C)(C)C2)nc(C)c1C(=O)O [Example 171, 6-(4-(3-(4-chloro-3-fluorophenyl)-1-(cyclobutylmethyl)-1H-pyrrolo[2,3-b]pyridine-6-carbonyl)-3,3-dimethylpiperazin-1-yl)-2,4-dimethylnicotinic acid]
- IC50: < 20 nM

Compound: CC[C@H](C)n1cc(-c2ccc(Cl)c(F)c2)c2ccc(C(=O)N3CCN(c4cc(C)c(C(=O)O)c(C)n4)CC3(C)C)nc21 [Example 172, (S)-6-(4-(1-(sec-butyl)-3-(4-chloro-3-fluorophenyl)-1H-pyrrolo[2,3-b]pyridine-6-carbonyl)-3,3-dimethylpiperazin-1-yl)-2,4-dimethylnicotinic acid]
- IC50: < 20 nM

Compound: Cc1cc(N2CCN(C(=O)c3ccc4c(-c5ccc(Cl)c(F)c5)cn(Cc5ncco5)c4n3)C(C)(C)C2)nc(C)c1C(=O)O [Example 173]
- IC50: 20 to 10000 nM

Compound: Cc1cc2c(-c3ccc(Cl)c(F)c3)cn(CC(C)C)c2nc1C(=O)N1CCN(c2cc(C)c(C(=O)O)c(C)n2)CC1(C)C [Example 174, 6-(4-(3-(4-chloro-3-fluorophenyl)-1-isobutyl-5-methyl-1H-pyrrolo[2,3-b]pyridine-6-carbonyl)-3,3-dimethylpiperazin-1-yl)-2,4-dimethylnicotinic acid]
- IC50: 20 to 10000 nM

Compound: Cc1cc(N2CCN(C(=O)c3ncc4c(-c5ccc(Cl)c(F)c5)cn(CC(C)C)c4n3)C(C)(C)C2)nc(C)c1C(=O)O [Example 175, 6-(4-(5-(4-chloro-3-fluorophenyl)-7-isobutyl-7H-pyrrolo[2,3-d]pyrimidine-2-carbonyl)-3,3-dimethylpiperazin-1-yl)-2,4-dimethylnicotinic acid]
- IC50: 20 to 10000 nM

Compound: CC(C)(C#N)c1ccnc(N2CCN(C(=O)c3ccc4c(-c5ccc(Cl)c(F)c5)cn(C(C)(C)C)c4n3)C(C)(C)C2)c1 [Example 176, 2-(2-(4-(1-(tert-butyl)-3-(4-chloro-3-fluorophenyl)-1H-pyrrolo[2,3-b]pyridine-6-carbonyl)-3,3-dimethylpiperazin-1-yl)pyridin-4-yl)-2-methylpropanenitrile]
- IC50: < 20 nM

Compound: CC(C)(C(N)=O)c1ccnc(N2CCN(C(=O)c3ccc4c(-c5ccc(Cl)c(F)c5)cn(C(C)(C)C)c4n3)C(C)(C)C2)c1 [Example 177, 2-(2-(4-(1-(tert-butyl)-3-(4-chloro-3-fluorophenyl)-1H-pyrrolo[2,3-b]pyridine-6-carbonyl)-3,3-dimethylpiperazin-1-yl)pyridin-4-yl)-2-methylpropanamide]
- IC50: < 20 nM

Compound: CCOP(=O)(OCC)c1ccc(N2CCN(C(=O)c3ccc4c(-c5ccc(Cl)c(F)c5)cn(C(C)(C)C)c4n3)C(C)(C)C2)nc1 [Example 178, diethyl (6-(4-(1-(tert-butyl)-3-(4-chloro-3-fluorophenyl)-1H-pyrrolo[2,3-b]pyridine-6-carbonyl)-3,3-dimethylpiperazin-1-yl)pyridin-3-yl)phosphonate]
- IC50: 20 to 10000 nM

Compound: Cc1cc(N2CCN(C(=O)c3ccc4c(-c5ccc(Cl)c(F)c5)cn(C(C)(C)C)c4n3)[C@@H](C)C2)nc(C)c1C(=O)O [Example 179, (S)-6-(4-(1-(tert-butyl)-3-(4-chloro-3-fluorophenyl)-1H-pyrrolo[2,3-b]pyridine-6-carbonyl)-3-methylpiperazin-1-yl)-2,4-dimethyinicotinic acid]
- IC50: 20 to 10000 nM

Compound: Cc1cc(N2CCN(C(=O)c3ccc4c(-c5ccc(Cl)c(F)c5)cn(CC(C)(C)O)c4n3)C(C)(C)C2)nc(C)c1C(=O)O [Example 180, 6-(4-(3-(4-chloro-3-fluorophenyl)-1-(2-hydroxy-2-methylpropyl)-1H-pyrrolo[2,3-b]pyridine-6-carbonyl)-3,3-dimethylpiperazin-1-yl)-2,4-dimethylnicotinic acid]
- IC50: 20 to 10000 nM

Compound: Cc1cc(N2CCN(C(=O)c3ccc4c(-c5ccc(Cl)c(F)c5)cn(CC5(C)COC5)c4n3)C(C)(C)C2)nc(C)c1C(=O)O [Example 181, 6-(4-(3-(4-chloro-3-fluorophenyl)-1-((3-methyloxetan-3-yl)methyl)-1H-pyrrolo[2,3-b]pyridine-6-carbonyl)-3,3-dimethylpiperazin-1-yl)-2,4-dimethylnicotinic acid]
- IC50: < 20 nM

Compound: Cc1cc(N2CCN(C(=O)c3ccc4c(-c5ccc(Cl)c(F)c5)cn(C[C@@H]5CCOC5)c4n3)C(C)(C)C2)nc(C)c1C(=O)O [Example 182, (S)-6-(4-(3-(4-chloro-3-fluorophenyl)-1-((tetrahydrofuran-3-yl)methyl)-1H-pyrrolo[2,3-b]pyridine-6-carbonyl)-3,3-dimethylpiperazin-1-yl)-2,4-dimethylnicotinic acid]
- IC50: 20 to 10000 nM

Compound: Cc1cc(N2CCN(C(=O)c3ccc4c(-c5ccc(Cl)c(F)c5)cn(CC5(C)CCOCC5)c4n3)C(C)(C)C2)nc(C)c1C(=O)O [Example 183, 6-(4-(3-(4-chloro-3-fluorophenyl)-1-((4-methyltetrahydro-2H-pyran-4-yl)methyl)-1H-pyrrolo[2,3-b]pyridine-6-carbonyl)-3,3-dimethylpiperazin-1-yl)-2,4-dimethyinicotinic acid]
- IC50: < 20 nM

Compound: Cc1cc(N2CCN(C(=O)c3ccc4c(-c5ccc(Cl)c(F)c5)cn(C[C@H]5CCOC5)c4n3)C(C)(C)C2)nc(C)c1C(=O)O [Example 184, (R)-6-(4-(3-(4-chloro-3-fluorophenyl)-1-((tetrahydrofuran-3-yl)methyl)-1H-pyrrolo[2,3-b]pyridine-6-carbonyl)-3,3-dimethylpiperazin-1-yl)-2,4-dimethyinicotinic acid]
- IC50: < 20 nM

Compound: Cc1cc(N2CCN(C(=O)c3ccc4c(n3)c(C(C)(C)C)cn4-c3ccc(Cl)c(F)c3)C(C)(C)C2)nc(C)c1C(=O)O [Example 185, 6-(4-(3-(tert-butyl)-1-(4-chloro-3-fluorophenyl)-1H-pyrrolo[3,2-b]pyridine-5-carbonyl)-3,3-dimethylpiperazin-1-yl)-2,4-dimethylnicotinic acid]
- IC50: < 20 nM

Compound: Cc1cc2c(-c3ccc(Cl)c(F)c3)cn(CC(C)C)c2nc1C(=O)N1CCN(c2cc(C)c(C(=O)O)c(C)n2)CC1 [Example 186, 6-(4-(3-(4-chloro-3-fluorophenyl)-1-isobutyl-5-methyl-1H-pyrrolo[2,3-b]pyridine-6-carbonyl)piperazin-1-yl)-2,4-dimethylnicotinic acid]
- IC50: > 10000 nM

Compound: CC(C)(C)n1cc(-c2ccc(Cl)c(F)c2)c2ccc(C(=O)N3CCC(Cn4cc(C(=O)O)cn4)CC3)nc21 [Example 187, 1-((1-(1-(tert-butyl)-3-(4-chloro-3-fluorophenyl)-1H-pyrrolo[2,3-b]pyridine-6-carbonyl)piperidin-4-yl)methyl)-1H-pyrazole-4-carboxylic acid]
- IC50: 20 to 10000 nM

Compound: Cc1cc(N2CCN(C(=O)c3cc(C)c4c(-c5ccc(Cl)c(F)c5)cn(CC(C)C)c4n3)C(C)(C)C2)nc(C)c1C(=O)O [Example 188, 6-(4-(3-(4-chloro-3-fluorophenyl)-1-isobutyl-4-methyl-1H-pyrrolo[2,3-b]pyridine-6-carbonyl)-3,3-dimethylpiperazin-1-yl)-2,4-dimethyinicotinic acid]
- IC50: 20 to 10000 nM

Compound: Cc1cc(N2CCN(C(=O)c3cc(C)c4c(-c5ccc(Cl)c(F)c5)cn(CC(C)C)c4n3)CC2)nc(C)c1C(=O)O [Example 189, 6-(4-(3-(4-chloro-3-fluorophenyl)-1-isobutyl-4-methyl-1H-pyrrolo[2,3-b]pyridine-6-carbonyl)piperazin-1-yl)-2,4-dimethylnicotinic acid]
- IC50: > 10000 nM

Compound: Cc1cc(N2CCN(C(=O)c3cnc4c(-c5ccc(Cl)c(F)c5)cn(CC(C)C)c4n3)C(C)(C)C2)nc(C)c1C(=O)O [Example 190, 6-(4-(7-(4-chloro-3-fluorophenyl)-5-isobutyl-5H-pyrrolo[2,3-b]pyrazine-3-carbonyl)-3,3-dimethylpiperazin-1-yl)-2,4-dimethylnicotinic acid]
- IC50: < 20 nM

Compound: Cc1cc(N2CCN(C(=O)c3ccc4c(-c5ccc(F)c(F)c5)cn(C(C)(C)C)c4n3)C(C)(C)C2)nc(C)c1C(=O)O [Example 191, 6-(4-(1-(tert-butyl)-3-(3,4-difluorophenyl)-1H-pyrrolo[2,3-b]pyridine-6-carbonyl)-3,3-dimethylpiperazin-1-yl)-2,4-dimethylnicotinic acid]
- IC50: < 20 nM

Compound: Cc1cccc(Cn2cc(-c3ccc(Cl)c(F)c3)c3ccc(C(=O)N4CCN(c5cc(C)c(C(=O)O)c(C)n5)CC4(C)C)nc32)n1 [Example 192, 6-(4-(3-(4-chloro-3-fluorophenyl)-1-((6-methylpyridin-2-yl)methyl)-1H-pyrrolo[2,3-b]pyridine-6-carbonyl)-3,3-dimethylpiperazin-1-yl)-2,4-dimethylnicotinic acid hydrochloride]
- IC50: < 20 nM

From patent US20240066027A1 (DOMAIN THERAPEUTICS, priority 2020, published 2024)
